{
  "source": "ChEMBL document CHEMBL5465560",
  "about": "“Selectivity Literature for EUbOPEN Chemogenomic Library” (2024)",
  "key": {"[1]": {"target": "Receptor tyrosine-protein kinase erbB-2 (Homo sapiens, UniProt P04626)", "sequence (P04626 whole entry)": "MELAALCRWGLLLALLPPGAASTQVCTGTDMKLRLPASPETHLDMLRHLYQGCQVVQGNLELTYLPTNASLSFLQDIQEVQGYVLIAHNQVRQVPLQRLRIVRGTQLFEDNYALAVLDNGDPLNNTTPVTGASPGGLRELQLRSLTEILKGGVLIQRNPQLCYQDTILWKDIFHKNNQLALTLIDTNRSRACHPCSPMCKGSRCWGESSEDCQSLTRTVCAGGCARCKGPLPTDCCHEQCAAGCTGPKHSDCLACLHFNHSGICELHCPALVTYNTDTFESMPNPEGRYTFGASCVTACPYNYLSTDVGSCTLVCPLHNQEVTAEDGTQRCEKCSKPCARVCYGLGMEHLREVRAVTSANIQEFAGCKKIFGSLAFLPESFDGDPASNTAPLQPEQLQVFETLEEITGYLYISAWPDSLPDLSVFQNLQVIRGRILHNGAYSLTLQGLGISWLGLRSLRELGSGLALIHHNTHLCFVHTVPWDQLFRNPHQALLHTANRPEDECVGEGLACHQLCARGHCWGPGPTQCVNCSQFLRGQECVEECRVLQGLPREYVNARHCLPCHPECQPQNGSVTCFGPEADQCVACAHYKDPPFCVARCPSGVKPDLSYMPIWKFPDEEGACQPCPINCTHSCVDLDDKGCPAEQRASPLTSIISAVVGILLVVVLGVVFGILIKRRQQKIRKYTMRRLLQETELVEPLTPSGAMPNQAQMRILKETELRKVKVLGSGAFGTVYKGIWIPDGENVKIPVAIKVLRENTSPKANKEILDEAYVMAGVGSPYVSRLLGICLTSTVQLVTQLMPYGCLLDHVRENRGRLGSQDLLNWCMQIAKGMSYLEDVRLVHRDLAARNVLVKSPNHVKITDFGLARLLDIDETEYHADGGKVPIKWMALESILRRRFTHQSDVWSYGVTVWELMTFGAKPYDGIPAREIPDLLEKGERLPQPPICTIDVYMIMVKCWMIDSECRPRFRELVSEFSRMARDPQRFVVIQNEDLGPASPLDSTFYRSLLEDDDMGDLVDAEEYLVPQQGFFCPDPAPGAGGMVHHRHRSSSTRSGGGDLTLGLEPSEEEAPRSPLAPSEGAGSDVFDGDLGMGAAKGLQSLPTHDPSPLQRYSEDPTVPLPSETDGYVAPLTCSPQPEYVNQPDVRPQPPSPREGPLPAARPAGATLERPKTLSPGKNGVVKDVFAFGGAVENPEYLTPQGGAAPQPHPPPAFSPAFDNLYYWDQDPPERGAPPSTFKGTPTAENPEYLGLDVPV", "assay": "Selectivity interaction (KinomeScan (DiscoverX)) EUB0000655a ERBB2", "conditions": "at 10 µM"}, "[2]": {"target": "Serine/threonine-protein kinase mTOR (Homo sapiens, UniProt P42345)", "assay": "Selectivity interaction (KinomeScan (DiscoverX)) EUB0000618a MTOR", "conditions": "at 10 µM"}, "[3]": {"target": "T1, Mitogen-activated protein kinase kinase kinase 15 (Homo sapiens) (UniProt Q6ZN16)", "T1 sequence (whole entry)": "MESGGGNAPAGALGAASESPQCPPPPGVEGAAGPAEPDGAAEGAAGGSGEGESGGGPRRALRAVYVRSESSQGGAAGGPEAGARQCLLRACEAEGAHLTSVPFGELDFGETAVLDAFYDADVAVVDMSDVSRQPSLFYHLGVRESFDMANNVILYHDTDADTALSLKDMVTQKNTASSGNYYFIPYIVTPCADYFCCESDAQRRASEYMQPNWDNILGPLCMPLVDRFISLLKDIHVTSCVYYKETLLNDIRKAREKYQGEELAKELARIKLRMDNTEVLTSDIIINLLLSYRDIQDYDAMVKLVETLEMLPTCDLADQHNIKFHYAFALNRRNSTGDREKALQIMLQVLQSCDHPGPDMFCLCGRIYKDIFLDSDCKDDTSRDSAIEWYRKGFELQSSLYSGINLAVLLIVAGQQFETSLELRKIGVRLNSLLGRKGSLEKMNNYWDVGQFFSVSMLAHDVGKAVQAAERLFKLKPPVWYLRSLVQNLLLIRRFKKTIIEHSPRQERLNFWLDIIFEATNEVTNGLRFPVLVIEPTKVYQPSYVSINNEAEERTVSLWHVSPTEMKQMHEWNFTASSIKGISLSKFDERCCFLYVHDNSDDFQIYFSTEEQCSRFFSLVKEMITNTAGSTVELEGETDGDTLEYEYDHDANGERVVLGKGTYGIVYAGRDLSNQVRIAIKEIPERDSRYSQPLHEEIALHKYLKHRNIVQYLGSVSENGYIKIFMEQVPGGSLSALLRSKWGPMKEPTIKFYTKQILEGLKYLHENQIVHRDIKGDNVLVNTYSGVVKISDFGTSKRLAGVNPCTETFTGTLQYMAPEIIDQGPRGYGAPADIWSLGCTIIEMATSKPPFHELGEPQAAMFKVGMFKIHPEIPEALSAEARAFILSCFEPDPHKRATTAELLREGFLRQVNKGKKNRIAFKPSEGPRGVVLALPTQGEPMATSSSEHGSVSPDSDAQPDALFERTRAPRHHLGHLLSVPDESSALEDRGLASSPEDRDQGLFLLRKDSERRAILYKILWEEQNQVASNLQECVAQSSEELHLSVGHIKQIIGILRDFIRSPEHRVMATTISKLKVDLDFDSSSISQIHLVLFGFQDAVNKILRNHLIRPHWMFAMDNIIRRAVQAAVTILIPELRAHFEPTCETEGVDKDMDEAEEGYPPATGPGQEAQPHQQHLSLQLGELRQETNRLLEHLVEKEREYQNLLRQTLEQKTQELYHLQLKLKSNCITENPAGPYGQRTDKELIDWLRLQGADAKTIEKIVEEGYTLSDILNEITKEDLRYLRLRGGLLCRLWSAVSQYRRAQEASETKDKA", "assay": "Selectivity interaction (KinomeScan (DiscoverX)) EUB0000607a MAP3K15", "conditions": "at 10 µM"}, "[4]": {"target": "T2, Serine/threonine-protein kinase haspin (Homo sapiens) (UniProt Q8TF76)", "T2 sequence (whole entry)": "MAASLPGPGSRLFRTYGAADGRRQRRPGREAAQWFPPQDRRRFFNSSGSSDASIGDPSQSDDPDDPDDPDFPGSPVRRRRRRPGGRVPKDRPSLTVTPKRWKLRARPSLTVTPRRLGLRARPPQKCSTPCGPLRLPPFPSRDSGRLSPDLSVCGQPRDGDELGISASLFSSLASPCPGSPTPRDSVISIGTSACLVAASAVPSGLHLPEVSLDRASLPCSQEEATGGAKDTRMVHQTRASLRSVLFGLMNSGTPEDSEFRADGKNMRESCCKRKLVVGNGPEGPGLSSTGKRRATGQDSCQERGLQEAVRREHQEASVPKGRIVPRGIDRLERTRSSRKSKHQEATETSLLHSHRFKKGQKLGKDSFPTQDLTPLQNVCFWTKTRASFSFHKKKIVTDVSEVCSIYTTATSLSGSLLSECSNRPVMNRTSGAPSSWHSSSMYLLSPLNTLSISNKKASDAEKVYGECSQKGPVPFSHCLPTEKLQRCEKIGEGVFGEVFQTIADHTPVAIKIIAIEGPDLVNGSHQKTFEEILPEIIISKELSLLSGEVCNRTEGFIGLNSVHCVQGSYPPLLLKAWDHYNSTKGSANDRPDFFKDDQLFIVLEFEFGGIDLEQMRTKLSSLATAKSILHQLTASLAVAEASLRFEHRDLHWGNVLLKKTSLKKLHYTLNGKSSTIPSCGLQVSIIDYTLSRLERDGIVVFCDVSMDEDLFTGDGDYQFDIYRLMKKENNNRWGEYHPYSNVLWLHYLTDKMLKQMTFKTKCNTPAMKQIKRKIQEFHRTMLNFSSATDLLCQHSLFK", "assay": "Selectivity interaction (KinomeScan (DiscoverX)) EUB0001619a GSG2", "conditions": "at 1 µM"}, "[5]": {"target": "Casein kinase I isoform gamma-2 (Homo sapiens) (UniProt P78368)", "sequence (P78368 whole entry, looked up, canonical isoform)": "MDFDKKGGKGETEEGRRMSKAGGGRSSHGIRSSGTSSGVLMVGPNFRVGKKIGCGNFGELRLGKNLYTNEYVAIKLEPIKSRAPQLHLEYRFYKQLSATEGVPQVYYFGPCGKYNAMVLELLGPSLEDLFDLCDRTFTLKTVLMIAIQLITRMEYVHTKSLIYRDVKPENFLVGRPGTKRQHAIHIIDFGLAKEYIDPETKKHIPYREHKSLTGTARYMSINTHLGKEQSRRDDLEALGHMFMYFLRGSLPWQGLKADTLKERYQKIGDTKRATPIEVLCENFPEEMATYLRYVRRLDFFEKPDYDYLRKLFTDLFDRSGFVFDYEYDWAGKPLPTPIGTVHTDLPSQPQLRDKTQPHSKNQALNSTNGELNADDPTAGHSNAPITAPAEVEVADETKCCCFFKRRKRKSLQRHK", "assay": "Selectivity interaction (KinomeScan (DiscoverX)) EUB0001049a CSNK1G2", "conditions": "at 1 µM"}, "[6]": {"target": "T3, Serine/threonine-protein kinase Nek5 (Homo sapiens) (UniProt Q6P3R8)", "T3 sequence (whole entry)": "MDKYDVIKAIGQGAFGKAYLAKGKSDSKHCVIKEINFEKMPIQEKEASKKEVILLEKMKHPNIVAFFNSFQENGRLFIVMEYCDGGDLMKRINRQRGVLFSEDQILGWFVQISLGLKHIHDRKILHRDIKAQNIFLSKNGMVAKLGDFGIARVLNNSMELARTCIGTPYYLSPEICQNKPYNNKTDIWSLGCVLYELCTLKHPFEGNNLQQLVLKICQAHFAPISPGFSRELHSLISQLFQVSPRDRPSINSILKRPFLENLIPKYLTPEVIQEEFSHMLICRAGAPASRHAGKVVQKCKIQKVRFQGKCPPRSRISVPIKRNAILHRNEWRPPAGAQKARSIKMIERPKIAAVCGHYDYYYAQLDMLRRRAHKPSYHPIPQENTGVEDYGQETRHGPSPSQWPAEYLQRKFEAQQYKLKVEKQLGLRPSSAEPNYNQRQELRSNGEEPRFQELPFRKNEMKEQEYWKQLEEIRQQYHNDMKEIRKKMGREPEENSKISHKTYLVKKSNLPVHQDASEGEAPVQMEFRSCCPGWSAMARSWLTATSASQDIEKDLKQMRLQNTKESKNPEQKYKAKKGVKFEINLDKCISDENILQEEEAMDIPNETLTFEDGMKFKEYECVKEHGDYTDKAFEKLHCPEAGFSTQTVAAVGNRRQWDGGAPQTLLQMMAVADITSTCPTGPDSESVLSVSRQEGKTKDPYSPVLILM", "assay": "Selectivity interaction (KinomeScan (DiscoverX)) EUB0000092b NEK5", "conditions": "at 10 µM"}},
  "data": [
    {"molecule": "CN(C)CCOc1ccc(-c2nc(-c3ccncc3)c(-c3ccc4c(c3)CC/C4=N\\O)[nH]2)cc1", "values": [
      {"measurement": "% of control", "setting": "[1]", "result": 40, "unit": "%"}
    ]},
    {"molecule": "O[C@H]1CC[C@H](Nc2ncc3nc(Nc4c(F)cc(F)cc4F)n([C@H]4CCOC4)c3n2)CC1", "values": [
      {"measurement": "% of control", "setting": "[2]", "result": 68, "unit": "%"}
    ]},
    {"molecule": "CNC(=O)Nc1ccc(-c2nc(N3CC4CCC(C3)O4)c3cnn(C4CCC5(CC4)OCCO5)c3n2)cc1", "values": [
      {"measurement": "% of control", "setting": "[3]", "result": 100, "unit": "%"}
    ]},
    {"molecule": "N#Cc1cccc(-c2c[nH]c3ncnc(N4CCOCC4)c23)c1", "values": [
      {"measurement": "% of control", "setting": "[4]", "result": 46, "unit": "%"}
    ]},
    {"molecule": "COc1cc(Nc2nc(C)cc(-c3cnn4nc(OC)ccc34)n2)cc(C(F)(F)F)c1", "values": [
      {"measurement": "% of control", "setting": "[5]", "result": 97, "unit": "%"}
    ]},
    {"molecule": "CCC(=O)N1CCN(c2ccc(-n3c(=O)ccc4cnc5ccc(-c6cnc7ccccc7c6)cc5c43)cc2C(F)(F)F)CC1", "values": [
      {"measurement": "% of control", "setting": "[6]", "result": 5.8, "unit": "%"}
    ]}
  ]
}
